Data reported in patent US20230414581A1, “SARM1 ENZYME ACTIVITY INHIBITOR AND USE THEREOF IN NEURODEGENERATIVE DISEASES” (ARTIVILA BIOPHARMA, priority 2020, published 2023).

What was measured:
[1] = target: T1, dN-SARM1 (Homo sapiens (Human), UniProt Q6SZW1); assay: In vitro biochemical test of inhibiting SARM1 enzyme activity (IC50), PC6 fluorescence method; details: dN-SARM1 0.05 μg/ml; 50 μM NAD, 50 μM PC6, 50 μM NMN activator; 10 min pre-incubation
Procedure: First, 200 μM of the compound was added to a 50 mM Tris-HCl (pH 7.5) solution containing 0.05 μg/ml dN-SARM1. Then half of the mixture was added to an equal volume of 50 mM Tris-HCl (pH 7.5) solution containing 0.05 μg/ml dN-SARM1 (pH 7.5) for mixing. The drug was diluted 6 times by analogy to final concentrations of 200, 100, 50, 25, 12.5, 6.25, 3.125 μM, or 200, 50, 12.5, 3.125, 0.78, 0.195, 0.049 μM. The solution without addition of inhibitor was control group. The above solutions were incubated at room temperature for 10 min.
(§1) Then 50 μM NAD, 50 μM PC6 as substrate and 50 μM NMN as activator were added to the dN-SARM1 protein incubated with inhibitor for 30 min of reaction at room temperature. The concentration of each component was the final concentration in the reaction system.
(§2) During the reaction process, PC6 fluorescence spectrum kinetics was detected by a microplate reader at an excitation wavelength and an emission wavelength of 390 nm and 520 nm, respectively. Finally, the activity of the protein was denoted by the reaction rate, and the half-inhibition concentration was calculated. The higher the reaction rate, the stronger the protein activity, and the lower the inhibition efficiency of the compound.

[2] = target: SARM1 in iSARM1 (HEK293) cells (Homo sapiens (Human), UniProt Q6SZW1); assay: Inhibition of SARM1 activity in cell line with inducible overexpression of SARM1 (intracellular cADPR level); assay type: cell-based; details: 50 μM inhibitor, 100 μM CZ-48 activator, 16 h, cADPR content
Procedure: Firstly, a 96-well culture dish was treated with 0.05 mg/ml polylysine for 5 min, and washed once with PBS. 3×10^4 iSARM1 (HEK293) cells were plated into the 96-well plate and cultured in a 37° C. and 5% incubator overnight. The next day, the cells were added with an inhibitor with a final concentration of 50 μM, cultured in the incubator for 1.5 h, then added with the activator CZ-48 with a final concentration of 100 μM, and co-cultured for 16 h. In addition, a control group without addition of CZ-48 or drug was set up. Finally, the intracellular cADPR level was detected to denote the activity of SARM1, and the inhibition rate of SARM1 by 50 μM inhibitor in cells was calculated.
The cADPR assay was conducted as follows. First, the cells were washed once with PBS, and added with 150 μl of pre-cooled 0.6M perchloric acid (PCA) for rapid lysis of the cells and precipitation of proteins. […]
The content of cADPR in the solution was determined by Cycling analysis, which was operated as follows. […] Each well of the 96-well plate was added with the reaction solution containing or not containing cyclase for reaction, and the reaction kinetic curve within 30 min (Ex:Em=544/599) was recorded. The average slope of the reaction was calculated, and the accurate cADPR content was calculated by converting the cADPR standard. […]

[3] = target: T1, dN-SARM1; assay: In vitro biochemical test of inhibiting SARM1 enzyme activity (% inhibition rate), PC6 fluorescence method; details: 50 μM compound; 0.05 μg/ml dN-SARM1; 50 μM NAD, 50 μM PC6, 50 μM NMN activator; 30 min room temperature
Procedure: The compounds were detected by PC6 fluorescence method [Chinese patent 202010528147.3] with the dN-SARM1 protein obtained in “Expression and purification of SARM1 protein” and “(4) Protein extraction” in Example 4 above.
as §1, with “First, 0.05 μg/ml dN-SARM1 and 50 μM compound were incubated in 50 mM Tris-HCl (pH 7.5) solution for 10 min. Then” for “Then”, “the drug” for “inhibitor”
as §2, with “rate.” for “rate, and the half-inhibition concentration was calculated.”

T1 sequence (Q6SZW1 28-724): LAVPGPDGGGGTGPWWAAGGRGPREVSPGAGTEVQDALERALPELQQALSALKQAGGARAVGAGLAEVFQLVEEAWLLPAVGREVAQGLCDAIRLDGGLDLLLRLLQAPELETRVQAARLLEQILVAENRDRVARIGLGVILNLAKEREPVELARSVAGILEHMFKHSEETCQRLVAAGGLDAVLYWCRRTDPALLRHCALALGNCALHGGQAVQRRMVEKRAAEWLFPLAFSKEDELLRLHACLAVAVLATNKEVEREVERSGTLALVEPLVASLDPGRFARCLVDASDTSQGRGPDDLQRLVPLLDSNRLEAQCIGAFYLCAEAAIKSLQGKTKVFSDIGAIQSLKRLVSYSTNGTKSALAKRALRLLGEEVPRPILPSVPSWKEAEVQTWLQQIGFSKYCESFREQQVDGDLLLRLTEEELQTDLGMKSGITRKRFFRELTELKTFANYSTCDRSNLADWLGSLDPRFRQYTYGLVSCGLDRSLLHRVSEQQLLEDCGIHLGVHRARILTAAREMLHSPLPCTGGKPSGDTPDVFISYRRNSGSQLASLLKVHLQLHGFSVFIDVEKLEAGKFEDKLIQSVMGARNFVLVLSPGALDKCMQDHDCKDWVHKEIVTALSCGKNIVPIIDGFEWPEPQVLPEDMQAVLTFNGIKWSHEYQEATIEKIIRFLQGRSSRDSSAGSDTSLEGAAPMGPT
Sequence of SARM1 in iSARM1 (HEK293) cells (Q6SZW1 28-724): as above

Row | SMILES | IC50 [1] [nM] | Inhibition rate [2] | Inhibition rate of enzyme activity [3] [%]
1 | Cn1sc(=O)n(Cc2ccccc2)c1=O [Compound 1] | < 1000 |  | 
2 | O=c1sn(-c2ccccc2C(F)(F)F)c(=O)n1CC1CC1 [Compound 2] | < 1000 | B (B: 25-50%) | 
3 | Cn1c(=O)sn(-c2cccc3ccccc23)c1=O [Compound 3] | < 1000 |  | 
4 | Cc1cccc(Cl)c1-n1sc(=O)n(CC2CC2)c1=O [Compound 4] | < 1000 |  | 
5 | Cc1ccc(-n2sc(=O)n(Cc3ccc(F)cc3)c2=O)cc1 [Compound 6] | < 1000 |  | 
6 | O=c1sn(-c2cccc3ccccc23)c(=O)n1Cc1ccccc1 [Compound 7] | < 1000 |  | 98.6
7 | CC(C)c1ccc(-n2c(=O)sn(-c3ccc(SC(F)(F)F)cc3)c2=O)cc1 [Compound 8] | 1000 to 10000 |  | 
8 | N#Cc1ccc(Cl)cc1Cc1cc(Cl)ccc1C#N [Compound 32] | > 10000 |  | 93.7
9 | Oc1cc(Cl)ccc1Oc1ccc(Cl)cc1Cl [Compound 35] | > 10000 |  | 102
10 | N#Cc1c(Cl)cc(Cl)cc1Sc1cc(Cl)cc(Cl)c1O [Compound 36] | > 10000 |  | 98.5

Second part, the compound after the results:

Row | IC50 [1] [nM] | Inhibition rate [2] | Inhibition rate of enzyme activity [3] [%] | SMILES
11 | < 1000 |  | 101 | CCN(CC)C(=S)SSC(=S)N(CC)CC [Compound 37]
12 | 1000 to 10000 |  |  | CCn1c(=O)/c(=C2\Sc3ccccc3N2C)s/c1=C\c1cccc[n+]1CC [Compound 39]
13 |  |  | 75.6 | O=C(CCCCCCC(=O)Nc1ccccc1)NO [Compound 40]
14 |  |  | 67.3 | O=C(/C=C/c1ccc(CNCCc2c(O)[nH]c3ccccc23)cc1)NO [Compound 41]
15 |  |  | 67.4 | O=C(C=Cc1cccc(S(=O)(=O)Nc2ccccc2)c1)NO [Compound 42]
16 | > 10000 |  | 85.3 | O=C(CCCCCCNC(=O)c1cnc(N(c2ccccc2)c2ccccc2)nc1)NO [Compound 43]
